# In patent publication US20160263150A1, “TUNING BIOLOGICAL SYSTEM PROPERTIES FOR OPTIMIZED TREATMENT EFFICACY” (Baylor College of Medicine, priority 2015, published 2016):
# How the values were obtained:
# Type in all cases: physicochemical
# [1] = RF heating of kosmotropic materials in PBS (Example 2); settings: 342 mg/mL in PBS
# Procedure: Kosmotropic material solutions in phosphate buffered saline (PBS) were prepared using concentrated PBS to maintain equal ion concentration in all solutions. Kosmotropic materials (sucrose, maltose, trehalose, glycerol, propylene glycol, ethylene glycol) and all salts were obtained from Sigma-Aldrich in high purity (>98%) and used as received.
# A variable power Kanzius External RF system (13.56 MHz) Generator System (ThermMed, LLC, Erie, Pa.) was used to heat aqueous solutions and tissue samples. A high-voltage RF field is generated in the 8 cm air gap between the transmitting and receiving heads of the RF-field generator. For aqueous experiments, samples were placed in a 1.3 mL quartz cuvette on a nonconducting Teflon holder mounted on an adjustable rotary stage at ambient temperature and open to air. […] Sample temperatures were recorded using an infrared camera (FLIR SC 6000, FLIR Systems, Inc., Boston, Mass.) approximately every 0.17 seconds. […] Heating rates were calculated by fitting a linear regression to the temperature versus time plot of each sample for the duration of RF exposure or only for the first five seconds of RF exposure. The latter methodology allows for the assumption that the dielectric properties remain approximately constant in the time frame analyzed, as discussed herein. […]
# [2] = RF-induced heating of m-/s-SWNT suspensions in NaCl solutions; settings: with 2% w/v Pluronic F108
# Procedure: Once characterized, these m-/s-SWNT samples were then exposed to a high-intensity (˜90 kV/m) 13.56 MHz RF electric field. […] Approximately 1.3 mL of each sample was placed in a cylindrical quartz cuvette (˜1 cm height by ˜1 cm diameter) and exposed to the RF field for 120 seconds or until the temperature reached 70° C. to prevent electrical arcing. Thermal imaging data was captured using an FLIR SC 600 infrared camera. Videos were also recorded simultaneously using a Nikon SLR camera. Once the samples had been exposed, the SWNTs were removed from solution using a 100 KDa filter to collect the supernatant, which was then re-exposed to the RF field. The differential heating rates determined heat production from the SWNTs themselves and not the Pluronic F108/NaCl background.
# Using the highest SWNT concentration of 100 mg/L, Applicants then sought to investigate SWNT heating rates versus host medium conductivity, which was modulated using NaCl solutions. Aqueous NaCl solutions (all with 2% w/v Pluronic F108) across the molarity range 10^4 to 10^3 mM were combined with m-/s-SWNTs at a concentration of 100 mg/L. These were then exposed to the RF field and filtered to remove the supernatant, which was then re-exposed.
# [3] = RF heating rate and conductivity of bovine blood mixed with additives; settings: for effect of addition on blood conductivity and heating rate: 1-20% by weight in bovine blood; for additive content from which a significant increase in blood heating rate (p<0.005) was observed: by weight in bovine blood with 2-3% EDTA
# Procedure: In a similar study, various additives were added to bovine blood containing 2-3% ethylenediamine tetraacetic acid (EDTA) to prevent coagulation. The additives tested were propylene glycol, glycerol, pure water and normal saline at concentrations of 1-20% by weight.
# A variable power RF (13.56 MHz) Generator System (ThermMed, LLC, Erie, Pa.) was used to heat aqueous solutions. A high-voltage RF field is generated in the 8 cm air gap between the transmitting and receiving heads of the RF field generator. For aqueous experiments, samples were placed in a 1.3 mL quartz cuvette on a non-conducting Teflon holder mounted on an adjustable rotary stage at ambient temperature and open to air. The cuvette was placed 8 mm from the transmitting head of the RF field generator and exposed to the high-voltage RF field at 100 or 900 W generator power. Sample temperatures were recorded using an infrared camera (FLIR SC 6000, FLIR Systems, Inc., Boston, Mass.) approximately every 0.17 s. At both 100 W and 900 W, samples were heated from ambient temperature (i.e., ˜23° C.) to 27° C. or for a duration of 60 seconds, whichever occurred first. Heating rates were calculated by fitting a linear regression to the temperature versus time plot of each sample for the duration of RF exposure.
# Previous experiments involved conductivity modulation of PBS, a biologically relevant aqueous solution commonly used in laboratory settings. […] Blood samples contained 2-3% ethylenediamine tetraacetic acid (EDTA) to prevent coagulation. A number of additives, including water, normal saline, propylene glycol and glycerol were mixed with blood at increasing weight percent content (1-20%).
# [4] = RF (13.56 MHz) heating rate of kosmotropic materials dissolved in PBS, 100 W; settings: 500 mg/m in PBS
# Procedure: Sample temperature was measured using an infrared camera. The heating rates were calculated by a least-squares linear regression of the resultant temperature-time plot (FIG. 2B). Samples were heated from 23° C. to either 27° C. or for a duration of 60 seconds, whichever occurred first. Over this selected small temperature range, the variation of the temperature-dependence of dielectric properties was negligible.
# The complex relative permittivity (∈′r and e″r) of all samples was measured over the frequency range of 10 MHz to 3 GHz (FIGS. 4A-B). From these measurements, the conductivity was obtained using the relationship σ=ω∈D∈″r. […]
# Each of the materials listed in FIG. 5A were dissolved at 100, 250, and 500 mg/mL in phosphate buffered saline (PBS), a biologically iso-osmolar solution with similar conductivity (1.15 S/m) to blood and body tissues. […] RF heating rates and conductivity were measured according to the procedure described in Examples 1.1 and 1.2. […]
# A variable power RF (13.56 MHz) Generator System (ThermMed, LLC, Erie, Pa.) was used to heat aqueous solutions. […] Sample temperatures were recorded using an infrared camera (FLIR SC 6000, FLIR Systems, Inc., Boston, Mass.) approximately every 0.17 s. […] Heating rates were calculated by fitting a linear regression to the temperature versus time plot of each sample for the duration of RF exposure.
# [5] = RF heating of neat ethanol and oils, 900 W
# Procedure: A variable power Kanzius External RF system (13.56 MHz) Generator System (ThermMed, LLC, Erie, Pa.) was used to heat aqueous solutions and tissue samples. A high-voltage RF field is generated in the 8 cm air gap between the transmitting and receiving heads of the RF-field generator. For aqueous experiments, samples were placed in a 1.3 mL quartz cuvette on a nonconducting Teflon holder mounted on an adjustable rotary stage at ambient temperature and open to air. The cuvette was placed 8 mm from the transmitting head of the RF-field generator and exposed to the high-voltage RF field at 900 W generator power. Sample temperatures were recorded using an infrared camera (FLIR SC 6000, FLIR Systems, Inc., Boston, Mass.) approximately every 0.17 seconds. Samples were heated from ambient temperature (i.e., ˜23° C. to ˜70° C. or for 120 seconds), whichever occurred first. Heating rates were calculated by fitting a linear regression to the temperature versus time plot of each sample for the duration of RF exposure or only for the first five seconds of RF exposure. The latter methodology allows for the assumption that the dielectric properties remain approximately constant in the time frame analyzed, as discussed herein.
compound,measurement,setting,value
"OC[C@H]1O[C@H](O[C@H]2[C@H](O)[C@@H](O)C(O)O[C@@H]2CO)[C@H](O)[C@@H](O)[C@@H]1O (mixture of isomers) [Maltose, maltose]",PBS heating rate with kosmotropic material,[1],0.32±0.01 ° C./s
[Cl-].[Na+] [NaCl],NaCl concentration at maximum heating,[2],5 mM
"CC(O)CO (stereo not drawn) [Propylene glycol, propylene glycol]",effect of addition on blood conductivity and heating rate,[3],decrease in blood conductivity and increase in heating rate
same,additive content from which a significant increase in blood heating rate (p<0.005) was observed,[3],5%
same,increase of the heating rate of PBS,[4],490%
CCO [ethanol],RF heating rate of neat material,[5],0.09 ° C./s
OCC(O)CO [glycerol],effect of addition on blood conductivity and heating rate,[3],decrease in blood conductivity and increase in heating rate
same,additive content from which a significant increase in blood heating rate (p<0.005) was observed,[3],10%
OC[C@H]1O[C@H](O[C@H]2O[C@H](CO)[C@@H](O)[C@H](O)[C@H]2O)[C@H](O)[C@@H](O)[C@@H]1O [trehalose],PBS heating rate with kosmotropic material,[1],0.33±0.01 ° C./s
